The values that follow come from patent EP4755375A1, “PHARMACEUTICAL COMPOSITION CONTAINING SUBSTITUTED INDOL-5-OL DERIVATIVE AND USE THEREOF” (Changshan Conjuchem Biopharmaceutical Research and …, priority 2023, dated 2025).

Data set [1] can be described thus: Dog PK: bioavailability of solid dispersions and API. The format is in vivo. The note with it: plasma, beagle dogs (male, fasted), oral, dose 5 mg/kg. The method, then: Based on the solubility data from the solid dispersion formulation examples above, the API (administration form: 10 mg/mL suspension, API suspended in 0.5% CMC-Na solution) and solid dispersions prepared using PVP K30 (drug-excipient ratios of 1:3 and 1:4, respectively) were selected for dog PK experiments. The solid dispersions were filled into hard capsules and orally administered to beagle dogs (male, fasted, 3 dogs per group) at a dose of 5 mg/kg. Whole blood samples of 0.3 mL were collected at 0 min, 10 min, 15 min, 30 min, 1 h, 2 h, 3 h, 4 h, 6 h, 8 h, 12 h, and 24 h after administration. The blood samples were placed in anticoagulant tubes, gently inverted several times, and then kept on wet ice in preparation for centrifugation. Within 30 minutes after collection, the samples were centrifuged at about 2000 × g (force) at 4°C for 10 minutes to obtain plasma. The resulting plasma samples were immediately divided into two aliquots (about 75 µL each) and transferred to cryovials. The samples were maintained on wet ice throughout the processing and stored in a freezer at -75 ± 15°C until analysis. The concentrations of the test substance in the plasma samples were analyzed using an LC-MS/MS method. Table 50 Summary of Dog PK Data for SDD Formulations

The nature of data set [2]: Saturated solubility of API in different solvents/media. The format is physicochemical. The note with it: for solubility at 24 h: organic solvent or mixture, thermodynamic from solid, room temperature. As to the method: The saturated solubility of the compound of the present invention in different solvents/media is shown in Table 1 (Test method: An appropriate excess amount of API was placed in an appropriate amount of solvent and shaken at room temperature for 24 hours, after which the sample solution was processed and analyzed). Among them, methanol and acetone are the optimal choices. Table 1 Saturated Solubility of the Compound of the Present Invention in Different Solvents/Media

The nature of data set [3]: Solubility of API in solvent combinations (visual dissolution). It is filed as physicochemical. The note with it: organic solvent combinations of Table 2, organic solvent or mixture, thermodynamic from solid; solvent combinations of Table 2 (acetone/methanol, acetone/ethanol, with water or dichloromethane); read-out: solubility of API in the solvent combinations listed in Table 2. The method, then: The solvent compositions capable of simultaneously dissolving the compound of the present invention and the carrier materials are shown in Table 2. The detection method for the solubility of API in different solvent combinations is as follows: Weigh 20 mg of the compound of the present invention and add it to 4 mL of different solvents or solvent combinations, respectively. Gently shake and observe the dissolution phenomenon. If complete dissolution occurs, add a small amount of additional API to the above solution, continue shaking, and observe the dissolution phenomenon. […] All carrier materials listed in Table 2 are soluble in the selected solvents or solvent combinations. Table 2 Solvent Compositions Capable of Simultaneously Dissolving the Compound of the Present Invention and the Carrier

A short description of data set [4]: Dog PK experiment for tablets. The note with it: plasma, beagle dogs (male, fasted), oral, dose 5 mg/kg. The format is in vivo. As to the method: Example 59 and Example 60 were orally administered to beagle dogs (male, fasted, 3 dogs per group) at a dose of about 5 mg/kg. Example 65 was orally administered to beagle dogs (half male and half female, fasted, 8 dogs) at a dose of 50 mg/animal (about 5 mg/kg). Whole blood samples of 0.3 mL were collected at 0 min, 10 min, 15 min, 30 min, 1 h, 2 h, 3 h, 4 h, 6 h, 8 h, 12 h, and 24 h after administration. The blood samples were placed in anticoagulant tubes, gently inverted several times, and then kept on wet ice in preparation for centrifugation. Within 30 minutes after collection, the samples were centrifuged at about 2000 × g (force) at 4°C for 10 minutes to obtain plasma. The resulting plasma samples were immediately divided into two aliquots (about 75 µL each) and transferred to cryovials. The samples were maintained on wet ice throughout the processing and stored in a freezer at -75 ± 15°C until analysis. The concentrations of the test substance in the plasma samples were analyzed using an LC-MS/MS method. Table 51 Summary of Dog PK Data for Tablets

Data set [5] in a line: Solubility testing of solid dispersions in media with different pH values (shaker, 24 hours). It is filed as physicochemical. The note with it: 0.1mol/L HCl. The method, then: Weigh an amount of powder (equivalent to 50 mg of API) from Examples 1-7 into a 10-mL vial, add 5 mL of media with different pH values, so that the theoretical concentration of API in the sample solution was about 10 mg/mL. Shake the vials in a shaker for 24 hours, and determine the solubility. During shaking, observe the dissolution phenomenon of the powder in the solution. If the solution becomes clear, add an additional amount of sample powder. Table 4 Solubility of Solid Dispersions Prepared Using Povidone in Different Media
Weigh an amount of powder (equivalent to 50 mg of API) from Examples 9-13 into a 10-mL vial, add a corresponding volume of media with different pH values, so that the theoretical concentration of API in the solution was about 10 mg/mL (the theoretical concentration of API in the sample solution of Example 13 was about 5 mg/mL). Shake the vials in a shaker for 24 hours, and sample at 4 h and 24 h to determine the solubility. During shaking, observe the dissolution phenomenon of the powder in the solution. If the solution becomes clear, add an additional amount of sample powder. Table 7 Solubility of Solid Dispersions Prepared Using HPMC in Different Media
Weigh an amount of powder (equivalent to 50 mg of API) from Examples 14-16 into a 10-mL vial, add a corresponding volume of media with different pH values, so that the theoretical concentration of API in the sample solution was about 10 mg/mL. Shake the vials in a shaker for 24 hours, and sample at 4 h and 24 h to determine the solubility. During shaking, observe the dissolution phenomenon of the powder in the solution. If the solution becomes clear, add an additional amount of sample powder. Table 9 Solubility of Solid Dispersions Prepared Using HPC in Different Media
Weigh an amount of powder (equivalent to 50 mg of API) from Examples 17-21 into a 10-mL vial, add a corresponding volume of media with different pH values, so that the theoretical concentration of API in the sample solution was about 10 mg/mL. Shake the vials in a shaker for 24 hours, and sample at 4 h and 24 h to determine the solubility. During shaking, observe the dissolution phenomenon of the powder in the solution. If the solution becomes clear, add an additional amount of sample powder. Table 11 Solubility of Solid Dispersions Prepared Using Copovidone S630 in Different Media
Weigh an amount of powder (equivalent to 50 mg of API) from Examples 22-24 into a 10-mL vial, add a corresponding volume of media with different pH values, so that the theoretical concentration of API in the sample solution was about 10 mg/mL. Shake the vials in a shaker for 24 hours, and sample at 4 h and 24 h to determine solubility. Table 13 Solubility of Solid Dispersions Prepared Using HPMC AS in Different Media
Weigh an amount of powder(equivalent to 50 mg of API) from Examples 25-28 into a 10 mL vial, add a corresponding volume of media with different pH values, so that the theoretical concentration of API in the sample solution was about 10 mg/mL. Shake the vials in a shaker for 24 hours, and sample at 4 h and 24 h to determine the solubility. During shaking, observe the dissolution phenomenon of the powder in the solution. If the solution becomes clear, add an additional amount of sample powder. Table 15 Solubility of Solid Dispersions Prepared Using Polyethylene Glycol in Different Media […]

In brackets after ≈: the same amount, converted by molar mass.

As a reminder, the AUC is the area under the concentration-time curve, a measure of exposure. Low values mean low exposure, high ones high exposure. By Cmax is commonly meant the maximum level reached in the sampled fluid or tissue. In general, solubility refers to how much of the substance goes into solution per volume. As usually defined, the Solubility is how much of the substance goes into solution per volume. Take `C/C=C/c1cc(Nc2cc(N3CCN(C)CC3)nc(Oc3cc(F)c4[nH]c(C)cc4c3F)n2)n[nH]1` [API]: the AUC in data set [1] and in data set [4] was 59 ng·h/mL in each case. Further, the Cmax in data set [1] and in data set [4] was 22 ng/mL in each case. In addition, the “Solubility Description” value in data set [2] (Acetone), in data set [2] (Acetonitrile), in data set [2] (Ethanol), in data set [2] (Ethyl acetate), in data set [2] (Isopropanol) and in data set [2] (Methanol) was “Slightly soluble” throughout. For the same compound, the “Solubility Description” value in data set [2] (Propylene glycol) is recorded as “Slightly soluble”. Also, the solubility at 24 h in data set [2] (Acetone) amounted to 5990 µg/mL (≈ 12.5 mM); in data set [2] (Acetonitrile), 1220 µg/mL (≈ 2.54 mM); in data set [2] (Ethanol), 5170 µg/mL (≈ 10.8 mM); in data set [2] (Ethyl acetate), 4980 µg/mL (≈ 10.4 mM); in data set [2] (Isopropanol) it was 2340 µg/mL (≈ 4.87 mM); in data set [2] (Methanol), 8360 µg/mL (≈ 17.4 mM). Moreover, the solubility at 24 h in data set [2] (Propylene glycol) was 2220 µg/mL (≈ 4.62 mM); in data set [5] (simulated gastric fluid, thermodynamic from solid, 24h, sample Supersaturated), 50 µg/mL (≈ 0.104 mM). The Solubility was over 5000 µg/mL in data set [3]; 50 µg/mL (≈ 0.104 mM) in data set [5] (4h, API alone, sample concentration not given); 50 µg/mL (≈ 0.104 mM) in data set [5] (24h, API alone, sample concentration not given). Moreover, the solubility at 2 h in data set [5] (simulated gastric fluid, thermodynamic from solid, 2h, API alone, sample concentration not given) was 50 µg/mL (≈ 0.104 mM). Also, the solubility at 4 h in data set [5] (simulated gastric fluid, thermodynamic from solid, 4h, sample Supersaturated) is 50 µg/mL (≈ 0.104 mM).
